This passage reports IC50 and EC50 results from US6878388B1, “Vanadium compounds for treating proliferative cell disorders” (Parker Hughes Institute, priority 2000, dated 2005).

Usually IC50 stands for the concentration at which inhibition is half-maximal. In general, EC50 refers to the concentration that produces a half-maximal response.

Where two headings read alike, the source gives them in different places.

Experiment [1] relates to U373 human glioblastoma cells. Briefly: MTT cytotoxicity assay, U373. The format is cell-based. Particulars: 48 h incubation, 3 independent experiments, read-out: IC50 (mean ± SE). On the procedure:
(§1) Human brain tumor cells lines U87 MG (Cat.# HTB-14), U118 MG (Cat. # HTB-15), U138 (Cat # HTB-16), U373 MG (CAT. # HTB-17), and T98G (Cat. # CRL-1690) and breast cancer cell lines BT-20 (Cat # HTB-19), MDA-MB-231 (Cat # HTB-26), MDA-MB-361 (Cat # HTB-27), and MCF-7 (Cat # HTB-22) were obtained from American Type Culture Collection (ATCC, Rockville, Md.) and maintained as continuous cell lines in Dulbecco's modified Eagles's medium (U87, U118, U138, U373, T98 and BT-20) or Leibovitz's L-15 medium (MDA-MB-231 and MDA-MB-361). All media were supplemented with 10% fetal calf serum (FCS), 4 mM glutamine, 100 U/ml penicillin G and […] streptomycin sulfate. All tissue culture reagents were obtained from Life Technologies Inc. (GIBCO-BRL, Gaithersburg, Md.).
(§2) The cytotoxicity of [VO(SO4)(Me2-Phen)2] against human cancer cell lines was analyzed using the MTT (3-[4,5-dimethylthiazol-2-yl]-2,5-diphenyl tetrazolium bromide) assay (Boehringer Mannheim Corp., Indianapolis, Ind.) as described previously (Narla et al., Clin Cancer Res., 4: 1405-1414, 1998). […] The absorbance at 540 nm (a reference wavelength of 690 nm was used) of the solution in each well was measured using a microplate reader (Labsystems). The percent survival and the IC50 values were calculated using Graphpad Prism v2.0 (Graphpad Software, Inc., San Diego, Calif.) as described previously (Narla et al., Supra). […]

For another experiment, the system named is U87 glioblastoma cells. Briefly: In situ detection of apoptosis (TdT-mediated dUTP nick-end labeling), U87. The format is cell-based, human. To be noted: dUTP-FITC labeling, read-out: apoptotic EC50. On the procedure: (§3) Apoptosis was detected using an in situ cell death detection kit (Boehringer Mannheim Corp., Indianapolis, Ind.) as described previously (Albini et al., J. Cell Biol., 105: 1867-1872, 1987; Huang et al., J Biol Chem., 272: 2927-2935, 1997). Cells were incubated with [VO(SO4)(Me2-Phen)2] for 48 hours at 37° C., fixed, permeabilized, incubated with the reaction mixture containing terminal deoxynucleotidyl transferase (TdT) and fluorescein isothiocyanate (FITC)-conjugated dUTP and counterstained with propidium iodide. Cells were transferred to slides and viewed with confocal laser scanning microscope (Bio-Rad MRC 1024) mounted on a Nikon Eclipse E800 series upright microscope as previously reported (Narla et al., Supra).
(§4) Administration of [VO(SO4)(Me2-Phen)2] to cells induced apoptotic or programmed cell death as determined using the TdT-mediated dUTP nick-end labeling of exposed 3′-OH termini of DNA with dUTP-FITC.

Experiment [2] concerns MDA-MB-231 breast cancer cells. Briefly: In situ detection of apoptosis (TdT-mediated dUTP nick-end labeling), MDA-MB-231. The format is cell-based, human. To be noted: MDA-MB-231 cells, dUTP-FITC labeling; read-out: apoptotic EC50. On the procedure: as §3, §4
Experiment [3] deals with T98 human glioblastoma cells. Briefly: MTT cytotoxicity assay, T98. To be noted: 48 h incubation, 3 independent experiments, read-out: IC50 (mean ± SE). The format is cell-based. On the procedure: as §1, §2
Background: Formazan colour is commonly taken as a measure of viable cells.

Experiment [4] deals with MDA-MB-231 breast cancer cells. Briefly: In vitro adhesion assay to ECM proteins, MDA-MB-231. The class given is cell-based, human. To be noted: 16 h pretreatment, mean ± SE of 3 experiments. On the procedure:
In vitro adhesion assays were used to evaluate the effects of [VO(SO4)(Me2-Phen)2] on the adhesive properties of U87 and MDA-MD-231 cells as described previously (Narla et al., Clin Cancer Res, 4: 2463-2471, 1998). The plates for the adhesion assays were pre-coated with the extracellular matrix (ECM) proteins laminin, fibronectin, vitronectin and type IV collagen (each at a final concentration of 1 μg/ml in PBS) overnight at 4° C. and dried. Exponentially-growing cells (as described in the previous Example) were incubated with [VO(SO4)(Me2-Phen)2] at concentrations ranging from 0.5 μM to 25 μM for 16 hours in a humidified 5% CO2 atmosphere. The cells were then detached from the flasks with 0.05% trypsin (Life Technologies), resuspended in medium, incubated at 37° C. for 2 hours to allow them to recover from the trypsinization stress and examined for their ability to adhere to the plates precoated with ECM proteins. Cells were centrifuged, washed twice with serum-free medium, counted and resuspended in serum-free medium at a final concentration of 2.5×10^5 cells/ml. The cell suspension was added to each well in aliquots of 100 μl and the cells were allowed to adhere for one hour at 37° C. in a humidified 5% CO2atmosphere. The non-adherent cells were removed by gently washing the cells with PBS. The adherent fraction was quantitated using MTT assays as previously described (Narla, Supra).
U87 glioblastoma and MDA-MD-231 breast cancer cells were preincubated with various concentrations of [VO(SO4)(Me2-Phen)2] and processed for adhesion assays. [VO(SO4)(Me2-Phen)2] inhibited adhesion of the U87 and MDA-MB-231 cells to extracellular matrix (ECM) proteins, Pretreatment of cells with [VO(SO4)(Me2-Phen)2] inhibited the adhesion of U87 glioblastoma and MDA-MB-231 breast cancer cells to laminin-, fibronectin-, vitronectin- and collagen-coated plates. The inhibition of glioblastoma cell adhesion was concentration-dependent with mean (±SE) IC50 values from 3 independent experiments shown in the table below.

Experiment [5] relates to MDA-MB-361 breast cancer cells. Briefly: MTT cytotoxicity assay, MDA-MB-361. The class given is cell-based, human. To be noted: MDA-MB-361 cells, 48 h incubation, 3 independent experiments, read-out: IC50 (mean ± SE). On the procedure: as §1, §2
Experiment [6] has as its system U138 human glioblastoma cells. Briefly: MTT cytotoxicity assay, U138. The format is cell-based. Particulars: 48 h incubation, 3 independent experiments, read-out: IC50 (mean ± SE). On the procedure: as §1, §2

Consider `Cc1ccnc2c1ccc1c(C)ccnc12.Cc1ccnc2c1ccc1c(C)ccnc12.O=S(=O)([O-])[O-].[O]=[V+2]` [[VO(SO4)(Me2-Phen)2], bis(4,7-dimethyl-1,10-phenanthroline) sulfatooxovanadium (IV)], for which the IC50 is 2000 ± 400 nM in experiment [1]; 3900 ± 500 nM in experiment [3]; 1000 nM in experiment [4] (MDA-MB-231, fibronectin-coated plates, read-out: IC50 inhibition of adhesion to fibronectin); 1000 ± 100 nM in experiment [4] (MDA-MB-231, laminin-coated plates, read-out: IC50 inhibition of adhesion to laminin); 1300 nM in experiment [4] (MDA-MB-231, type IV collagen-coated plates, read-out: IC50 inhibition of adhesion to collagen); 1100 ± 100 nM in experiment [4] (MDA-MB-231, vitronectin-coated plates, read-out: IC50 inhibition of adhesion to vitronectin). For the same compound, the IC50 is 1900 ± 500 nM in experiment [5] and 2700 ± 400 nM in experiment [6]. The 50% effective concentration (EC50) came to 4200 ± 900 nM with U87 glioblastoma cells and 2100 ± 400 nM in experiment [2].
